Test results as given in patent publication US8946201B2, “Methods for inhibiting TGF-β” (Saint Louis University, priority 2007, dated 2015).

Legend:
[1] = test system: luciferase reporter gene driven by the PAI-1 promoter; assay: Luciferase activity assay, MLECs-clone 32; assay type: cell-based, mink
Protocol: (A, B, C, D, E, F) Cells were treated with 50 μg/ml cholesterol (A, B, C, D) and 50 μg/ml LDL (D) at 37° C. for 1 hr or with 1 μM fluvastatin or lovastatin (E) or several concentrations of fluvastatin (F) at 37° C. for 16 hr and then further incubated with increasing concentrations (as indicated) of TGF-β1 (A, B, C, E) or 50 pM TGF-β1 (D,F) for 2 hr. Northern blot analysis of PAI-1 and G3PDH was performed. A representative of a total of three analyses is shown (a). The relative intensities of the transcripts were quantified with a PhosphoImager. The ratio of the relative intensities of PAI-1 and G3PDH transcripts in cells treated without TGF-β1 and cholesterol, LDL or statins on the blot was taken as 1 fold or 100% of PAI-1 expression. The quantitative data from three independent analyses is shown (b). […] (G) Mv1Lu cells stably expressing a luciferase reporter gene driven by the PAI-1 promoter (MLECs-clone 32) were treated with increasing concentrations (as indicated) of cholesterol at 37 EC for 1 hr (a) or with 1 μM lovastatin at 37° C. for 16 hr (b) and then further incubated with 50 pM TGF-β for 7 hr. The luciferase activity in cells treated without cholesterol was taken as 100% (a). […] (H) Cells were incubated with 0.0625 and 0.125 pM TGF-β1 in the presence of increasing concentrations of cholesterol, as indicated. […] The experiments were carried out in triplicate.

[2] = test system: TβR-I and TβR-II; assay: 125I-TGF-β1 affinity labeling, Mv1Lu cells; assay type: cell-based, mink
Protocol: (A) Mv1Lu cells were treated with 50 μg/ml cholesterol at 37° C. After several time periods, as indicated, ^125I-TGF-β1-affinity labeling was performed at 0° C. ^125I-TGF-β1 affinity-labeled TGF-β receptors were analyzed by 7.5% SDS-PAGE and autoradiography (a) and quantified with a PhosphoImager. The bracket indicates the locations of ^125I-TGF-β1 affinity-labeled TβR-I and TβR-II. The ratio of ^125I-TGF-β1 binding to TβR-II and TβR-I is plotted against incubation time (b).
(§1) (B, C, D, E) Cells were treated with increasing concentrations of cholesterol in the presence (C) and absence (B, D, E) of 0.2% β-CD, as indicated. After 1 hr at 37° C., ^125I-TGF-β1 affinity labeling of TβR-I and TβR-II in cells was performed at 0° C. ^125I-TGF-β1 affinity-labeled TβR-I and TβR-II were analyzed by 7.5% SDS-PAGE and autoradiography or quantified with a PhosphoImager. A representative of a total of three analyses is shown (top). The bracket indicates the locations of ^125I-TGF-β affinity-labeled TβR-I and TβR-II. The relative intensities of ^125I-TGF-β1 affinity-labeled TβR-I and TβR-II in cells treated without cholesterol were taken as 100%. The quantitative data from three analyses is shown (bottom).
The bracket indicates the locations of ^125I-TGF-β1 affinity-labeled TβR-I and TβR-II. The relative intensities of ^125I-TGF-β1-TβR-I and ^125I-TGF-β1-TβR-II complexes, which were quantified with a PhosphoImager, are plotted against TGF-β1 concentrations (bottom).
(§2) (A, B, C, D, E, F) Cells were treated with LDL (50 μg protein/ml), VLDL (5 μg protein/ml), HDL (50 μg protein/ml), lipoprotein (a) (10 μg/ml), fluvastatin (F; 1 μM), lovastatin (L; 1 μM), nystatin (Nys; 25 μg/ml), β-CD (β-CD; 8 mM), cholest-4-en-3-one (3-one; 50 μg/ml) or cholesterol (Chol; 50 μg/ml) alone or combination of two. After 1 hr at 37° C. or 16 hr at 37° C. (for fluvastatin and lovastatin), ^125I-TGF-β1 affinity labeling of cell-surface TGF-β receptors was performed at 0° C. ^125I-TGF-β1 affinity-labeled TβR-I and TβR-II were analyzed by 7.5% SDS-PAGE and autoradiography. The relative intensities of TβR-I and TβR-II were quantified with a PhosphoImager. The ratio of ^125I-TGF-β1 binding to TβR-II and TβR-I were estimated. The numbers above the lane sequence denote the ratio of TβR-II/TβR-I.
(G) Mv1Lu cells were treated with 50 μg/ml of cholesterol and cholesterol analogs/derivatives including 25-hydroxycholesterol, 7-dehydrocholesterol (7-DHC), 7-ketocholesterol, 7β, 8β-epoxycholesterol, 7β-hydroxycholesterol, and oxidized 7-dehydrocholesterol (oxy-7DHC). After 1 hr at 37° C., ^125I-TGF-β1 affinity labeling of TGF-β receptors was performed. ^125I-TGF-β1 affinity-labeled TβR-I and TβR-II were analyzed by 7.5% SDS-PAGE and autoradiography. The bracket indicates the locations of ^125I-TGF-β1-affinity-labeled TβR-I and TβR-II. The relative intensities of ^125I-TGF-β1 affinity-labeled TβR-I and TβR-II were determined by a PhosphoImager. The ratios of ^125I-TGF-β1 binding to TβR-II and TβR-I were estimated. The numbers above the lane sequence denote the ratio of TβR-II/TβR-I.
(§3) After cross-linking, cell lysates were analyzed by 7.5% SDS-PAGE and autoradiography or quantified by a PhosphoImager. For all experiments, cholesterol or cholesterol derivatives were prepared as the stock solution with a concentration of 25 mg/ml in ethanol. The final concentration of ethanol in the medium was 0.2% (by vol.).

[3] = test system: TβR-I and TβR-II; assay: 125I-TGF-β1 affinity labeling, BAEC; assay type: cell-based, bovine
Protocol: as §1, §2, §3

[4] = 50 μg/ml, 60-min or 120-min incubation (FIG. 3A)
[5] = 125 μg/ml in the presence of 0.2% β-CD

`CC(C)CCC[C@@H](C)[C@H]1CC[C@H]2[C@@H]3CC=C4C[C@@H](O)CC[C@]4(C)[C@H]3CC[C@]12C` [cholesterol] was tested, and the “effect of cholesterol alone on TGF-β-stimulated luciferase activity” value ([1]; 25 ug/ml, without lovastatin) was “did not alter”, the “suppression of TGF-β1-stimulated luciferase activity” value ([1]; 50 μg/ml, 50 pM TGF-β1) was 40% and the luciferase activity ([1]; cells treated with cholesterol (25 ug/ml), lovastatin and TGF-β1) was 2314±120 A.U. The “effect on the stimulatory effect of lovastatin on TGF-β-stimulated luciferase activity” value ([1]; cholesterol 25 ug/ml for 1 hr prior to TGF-β stimulation) was “abolished”, the “effect on 125I-TGF-β1 binding to TβR-II” value [2, 4] was “did not affect” and the “increase of 125I-TGF-β1 binding to TβR-I” value [2, 4] was roughly 1.5 fold. For the same compound, the “ratio of TβR-II/TβR-I” value ([2]; 50 μg/ml, 60 min or 120 min, 0.37 without cholesterol) was 0.18, the “effect on the affinities of TGF-β1 binding to both TβR-I and TβR-II” value ([2]; 50 μg/ml, 1 hr) was “does not alter” and the “relative potency in increasing binding to TβR-I and decreasing the ratio” value ([2]; 50 μg/ml, 1 hr (FIG. 4G)) was “the most potent of these compounds”. The “increase of 125I-TGF-β1 binding to TβR-I” value ([2]; 50 μg/ml, 1 hr, 125 pM 125I-TGF-β1 (FIG. 3F)) was roughly 2 fold, the 125I-TGF-β1 binding to TβR-II, relative intensity ([2]; 50 μg/ml, 1 hr, 125 pM 125I-TGF-β1, ~180 untreated) was ~120 ×10^3 A.U and the “125I-TGF-β1 binding to TβR-I, relative intensity” value ([2]; 50 μg/ml, 1 hr, 125 pM 125I-TGF-β1, ~350 untreated) was ~700 ×10^3 A.U. For the same compound, the “ratio of TGF-β1 binding to TβR-II and TβR-I” value ([2]; 50 μg/ml, 1 hr, 0.62 untreated (FIG. 4G)) was 0.29, the “increase of 125I-TGF-β1 binding to TβR-I” value ([2]; 50 μg/ml, 1 hr, Mv1Lu cells) was roughly 2.5 fold and the “ratio of TβR-II/TβR-I” value ([2]; 50 μg/ml, 1 hr, Mv1Lu cells, 0.42 untreated) was 0.20. The “effect on 125I-TGF-β1 binding to TβR-II” value [2, 5] was “little effect”, the “increase of 125I-TGF-β1 binding to TβR-I” value [2, 5] was roughly 3 fold and the “effect of exogenous cholesterol on the statin effect on the ratio” value ([2]; CHO-K1, Mv1Lu and BAEC cells (FIGS. 4D, E and F)) was “abolished”. The “effect on binding of 125I-TGF-β1 to TβR-II” value ([2]; increasing concentrations, 1 hr, Mv1Lu cells) was “did not significant alter”, the “increase of 125I-TGF-β1 binding to TβR-I” value ([3]; 50 μg/ml, 1 hr, BAEC) was roughly 2.5 fold and the “ratio of TβR-II/TβR-I” value ([3]; 50 μg/ml, 1 hr, BAEC, 3.5 untreated) was 1.4. The “effect on binding of 125I-TGF-β1 to TβR-II” value ([3]; increasing concentrations, 1 hr, BAEC) was “did not significant alter”.

`CC[C@H](C)C(=O)O[C@H]1C[C@@H](C)C=C2C=C[C@H](C)[C@H](CC[C@@H]3C[C@@H](O)CC(=O)O3)[C@H]21` [lovastatin, reference compound] was tested, and the “enhancement of TGF-β1-stimulated luciferase activity” value ([1]; 1 μM, 16 hr, 50 pM TGF-β1) was 1.7 fold, the “ratio of TβR-II/TβR-I” value ([2]; 1 μM, 37° C. 16 hr, Mv1Lu cells, 0.88 untreated) was 1.18 and the “ratio of TβR-II/TβR-I” value ([3]; 1 μM, 37° C. 16 hr, BAEC cells, 2.47 untreated) was 2.6.

With `C[C@@H]1[C@H](O)[C@@H](C)/C=C/C=C/CC/C=C/C=C/C=C/C=C/C(O[C@H]2O[C@H](C)[C@@H](O)[C@H](N)[C@@H]2O)CC2O[C@](O)(CC(O)C(O)CCC(O)CC(O)CC(O)CC(=O)O[C@H]1C)CC(O)C2C(=O)O` (some centres unmarked) [nystatin, reference compound] the “effect on the LDL- or cholesterol-induced increase of 125I-TGF-β1 binding to TβR-I” value ([2]; co-treatment, β-CD 8 mM, nystatin 25 μg/ml, cholest-4-en-3-one 50 μg/ml (FIG. 4B, C)) was “abolished”.
